From patent US20240190890A1, “MK2 INHIBITORS AND USES THEREOF” (Bristol-Myers Squibb Company, priority 2022, published 2024)

Target: p38a activated, mitogen-activated protein kinase-activated protein kinase 2 (MAPKAP-K2 or MK2) enzyme (Homo sapiens (Human), UniProt P49137)
Test: MK2 Omnia continuous-read kinase assay for compound potency
Type: biochemical
Conditions: [MK-2]=0.4 nM, [ATP]=10 μM, [ST3-Sox]=10 μM; room temperature
Summary of the method: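 Continuous Sox-peptide fluorescence read (ex360/em485) every 71 s over 2 h at room temperature. Reactions: 10 μM each of ATP (at apparent Km) and S/T3-Sox, 0.4 nM p38a-activated MK2, pH 7.5 Tris/MgCl2 buffer. Initial rates yield % inhibition and IC50; single-exponential kobs values yield apparent kinact/KI.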

p38a activated, mitogen-activated protein kinase-activated protein kinase 2 (MAPKAP-K2 or MK2) enzyme, sequence (P49137 whole entry): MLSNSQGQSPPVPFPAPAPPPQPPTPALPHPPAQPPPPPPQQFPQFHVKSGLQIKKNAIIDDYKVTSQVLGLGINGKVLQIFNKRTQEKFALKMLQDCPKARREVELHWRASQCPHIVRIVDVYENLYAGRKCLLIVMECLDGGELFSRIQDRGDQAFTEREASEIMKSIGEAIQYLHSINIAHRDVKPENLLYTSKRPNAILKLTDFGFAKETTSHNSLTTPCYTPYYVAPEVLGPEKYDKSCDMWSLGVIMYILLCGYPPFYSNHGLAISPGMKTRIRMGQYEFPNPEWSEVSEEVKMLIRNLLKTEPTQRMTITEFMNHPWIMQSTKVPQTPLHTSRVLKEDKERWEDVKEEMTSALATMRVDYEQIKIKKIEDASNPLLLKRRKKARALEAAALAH

Molecule | IC50
C=Cc1cnn(C)c1-c1ccc2c(ccc3sc4c(c32)NC[C@@H](C)NC4=O)n1 [Example I-146, (R)-10-methyl-3-(1-methyl-4-vinyl-1H-pyrazol-5-yl)-9,10,11,12-tetrahydro-8H-[1,4]diazepino[5′,6′:4,5]thieno[3,2-f]quinolin-8-one] | 499 nM
C/C=C/c1ncc(F)c(-c2ccc3c(ccc4sc5c(c43)NC[C@@H](C)NC5=O)n2)n1 [Example I-45, (R,E)-3-(5-fluoro-2-(prop-1-en-1-yl)pyrimidin-4-yl)-10-methyl-9,10,11,12-tetrahydro-8H-[1,4]diazepino[5′,6′:4,5]thieno[3,2-f]quinolin-8-one] | 160 nM
C=Cc1cc(C)nn1-c1ccc2c(ccc3sc4c(c32)NC[C@@H](C)NC4=O)n1 [Example I-236, (R)-10-methyl-3-(3-methyl-5-vinyl-1H-pyrazol-1-yl)-9,10,11,12-tetrahydro-8H-[1,4]diazepino[5′,6′:4,5]thieno[3,2-f]quinolin-8-one] | 157 nM
C=Cc1cc(-c2ccc3c(ccc4sc5c(c43)NC[C@@H](C)NC5=O)n2)c(F)c(CN2CCOCC2)n1 [Example I-198, (R)-3-(3-fluoro-2-(morpholinomethyl)-6-vinylpyridin-4-yl)-10-methyl-9,10,11,12-tetrahydro-8H-[1,4]diazepino[5′,6′:4,5]thieno[3,2-f]quinolin-8-one] | 106 nM
(10R)-3-(2-(2,6-dimethylmorpholino)-6-vinylpyridin-4-yl)-10-methyl-9,10,11,12-tetrahydro-8H-[1,4]diazepino[5′,6′:4,5]thieno[3,2-f]quinolin- [Example I-201] | 73 nM
C#Cc1ncc(COCC)c(-c2ccc3c(ccc4sc5c(c43)NC[C@@H](C)NC5=O)n2)n1 [Example I-12, (R)-3-(5-(ethoxymethyl)-2-ethynylpyrimidin-4-yl)-10-methyl-9,10,11,12-tetrahydro-8H-[1,4]diazepino[5′,6′:4,5]thieno[3,2-f]quinolin-8-one] | 87 nM
C=Cc1ncnn1-c1ccc2c(ccc3sc4c(c32)NC[C@@H](C)NC4=O)n1 [Example I-214, (R)-10-methyl-3-(5-vinyl-1H-1,2,4-triazol-1-yl)-9,10,11,12-tetrahydro-8H-[1,4]diazepino[5′,6′:4,5]thieno[3,2-f]quinolin-8-one] | 2 nM
C#Cc1cc(-c2ccc3c(ccc4sc5c(c43)NC[C@@H](C)NC5=O)n2)cc(CN2C[C@@H](C)O[C@@H](C)C2)n1 [Example I-186, (R)-3-(2-(((2S,6R)-2,6-dimethylmorpholino)methyl)-6-ethynylpyridin-4-yl)-10-methyl-9,10,11,12-tetrahydro-8H-[1,4]diazepino[5′,6′:4,5]thieno[3,2-f]quinolin-8-one] | 26 nM
C=Cc1cc(-c2ccc3c(ccc4sc5c(c43)NC[C@@H](C)NC5=O)n2)c(N(C)C)nn1 [Example I-129, (R)-3-(3-(dimethylamino)-6-vinylpyridazin-4-yl)-10-methyl-9,10,11,12-tetrahydro-8H-[1,4]diazepino[5′,6′:4,5]thieno[3,2-f]quinolin-8-one] | 106 nM
C=Cc1cc(-c2ccc3c(ccc4sc5c(c43)NC[C@@H](C)NC5=O)n2)ncn1 [Example I-34, (R)-10-methyl-3-(6-vinylpyrimidin-4-yl)-9,10,11,12-tetrahydro-8H-[1,4]diazepino[5′,6′:4,5]thieno[3,2-f]quinolin-8-one] | 13 nM
[2H]C([2H])([2H])C(O)c1cnc(C=C)cc1-c1ccc2c(ccc3sc4c(c32)NC[C@@H](C)NC4=O)n1 (stereo partly drawn) [Example I-243, (10R)-3-(5-(1-hydroxyethyl-2,2,2-d3)-2-vinylpyridin-4-yl)-10-methyl-9,10,11,12-tetrahydro-8H-[1,4]diazepino[5′,6′:4,5]thieno[3,2-f]quinolin-8-one] | 10 nM
C/C=C\c1cc(-c2ccc3c(ccc4sc5c(c43)NC[C@@H](C)NC5=O)n2)nc(COCC)n1 [Example I-36, (R,Z)-3-(2-(ethoxymethyl)-6-(prop-1-en-1-yl)pyrimidin-4-yl)-10-methyl-9,10,11,12-tetrahydro-8H-[1,4]diazepino[5′,6′:4,5]thieno[3,2-f]quinolin-8-one] | 12 nM
C=Cc1cc(-c2ccc3c(ccc4sc5c(c43)NC[C@@H](C)NC5=O)n2)c(NC)nn1 [Example I-128, (R)-10-methyl-3-(3-(methylamino)-6-vinylpyridazin-4-yl)-9,10,11,12-tetrahydro-8H-[1,4]diazepino[5′,6′:4,5]thieno[3,2-f]quinolin-8-one] | 19 nM
CC#Cc1nccc(-c2ccc3c(ccc4sc5c(c43)NC[C@@H](C)NC5=O)n2)n1 [Example I-53, (R)-10-methyl-3-(2-(prop-1-yn-1-yl)pyrimidin-4-yl)-9,10,11,12-tetrahydro-8H-[1,4]diazepino[5′,6′:4,5]thieno[3,2-f]quinolin-8-one] | 213 nM

Other lines, results leading:

IC50 | Molecule
674 nM | C=Cc1cc(-c2ccc3c(ccc4sc5c(c43)NC[C@@H](C)NC5=O)n2)cc(N2CCC(C(F)(F)F)CC2)n1 [Example I-202, (R)-10-methyl-3-(2-(4-(trifluoromethyl)piperidin-1-yl)-6-vinylpyridin-4-yl)-9,10,11,12-tetrahydro-8H-[1,4]diazepino[5′,6′:4,5]thieno[3,2-f]quinolin-8-one]
206 nM | C=Cc1cc(-c2ccc3c(ccc4sc5c(c43)NC[C@@H](C)NC5=O)n2)cc(CN2CCC(OC(F)(F)F)CC2)n1 [Example I-189, (R)-10-methyl-3-(2-((4-(trifluoromethoxy)piperidin-1-yl)methyl)-6-vinylpyridin-4-yl)-9,10,11,12-tetrahydro-8H-[1,4]diazepino[5′,6′:4,5]thieno[3,2-f]quinolin-8-one]
2 nM | C=Cc1cc(-c2ccc3c(ccc4sc5c(c43)NC[C@@H](C)NC5=O)n2)cc(CN2CCN(C)CC2)n1 [Example I-125, (R)-10-methyl-3-(2-((4-methylpiperazin-1-yl)methyl)-6-vinylpyridin-4-yl)-9,10,11,12-tetrahydro-8H-[1,4]diazepino[5′,6′:4,5]thieno[3,2-f]quinolin-8-one]
185 nM | C#Cc1cc(-c2ccc3c(ccc4sc5c(c43)NC[C@@H](C)NC5=O)n2)cc(N2CCCCC2)n1 [Example I-178, (R)-3-(2-ethynyl-6-(piperidin-1-yl)pyridin-4-yl)-10-methyl-9,10,11,12-tetrahydro-8H-[1,4]diazepino[5′,6′:4,5]thieno[3,2-f]quinolin-8-one]
189 nM | C#Cc1cc(-c2ccc3c(ccc4sc5c(c43)NC[C@@H](C)NC5=O)n2)cc(N2CCC(OC)CC2)n1 [Example I-159, (R)-3-(2-ethynyl-6-(4-methoxypiperidin-1-yl)pyridin-4-yl)-10-methyl-9,10,11,12-tetrahydro-8H-[1,4]diazepino[5′,6′:4,5]thieno[3,2-f]quinolin-8-one]
46 nM | C[C@@H]1CNc2c(sc3ccc4nc(-c5cc(Cl)nc(C6CCN(C)CC6)c5)ccc4c23)C(=O)N1 [Example I-103, (R)-3-(2-chloro-6-(1-methylpiperidin-4-yl)pyridin-4-yl)-10-methyl-9,10,11,12-tetrahydro-8H-[1,4]diazepino[5′,6′:4,5]thieno[3,2-f]quinolin-8-one]
